The test system of one data set is RPMI8226. Description: Cytotoxicity (cell death) by 7-amino-actinomycin D staining and flow cytometry, RPMI8226 cells. As to the method:
(§1) The following cell lines were used: KMS-12-BM, K562, RPMI8226, OPM-2, NCI-H929, U266, and HL60. The cells were grown in 96-well tissue culture plates in a volume of 200 μl to a concentration of 1×10^6 cells/ml. Then, the cells were incubated for 20 h with 5 μg/ml, 10 μg/ml, and 20 μg/ml ET-18-OCH3 (final concentrations), respectively. Cell death was assessed by staining the cells with 7-amino-actinomycin D (final concentration 200 μg/ml) and analyzed via flow cytometry as described (see, e.g., Schmid, I. et al. (1994) J. Immunol. Meth. 170, 145-157; Ayuk, F. A. et al. (2005) Exp. Hematol. 33, 1531-1536).
(§2) The following human cell lines were used: • 1. KMS-12-BM (DMSZ no. ACC 551), bone marrow cells; myeloma/plasmacytoma; none of the genetic alterations defined herein; Chesi, M. et al. (2001), supra. • 2. K562 (ATCC no. CCL-243); bone marrow cells; CML; none of the genetic alterations defined herein; Delgado, M. D. et al. (2001), supra. • 3. […] OPM-2 (ATCC no. CRL-13007); lymphoblast cells; myeloma; t(4;14) chromosomal translocation; K650E FGFR3 gene mutation (AAG→GAG at codon 650); Chesi, M. et al. (2001), supra. • 5. NCI-H929 (ATCC no. CRL-9068); bone marrow cells; myeloma/plasmacytoma; t(4;14) chromosomal translocation; N13-G>D N-ras gene mutation (GGT→GAT at codon 13); Chesi, M. et al. (2001), supra. • 6. U266 (ATCC no. TIB-196); peripheral blood cells; myeloma/plasmacytoma; none of the genetic alterations defined herein; Chesi, M. et al. (2001), supra. • 7. HL60 (ATCC no. CCL-240); peripheral blood cells; AML; N61-Q>R N-ras gene mutation (CAA→CGA at codon 61); Bos, J. L. et al. (1984), supra. • 8. Jurkat (ATCC no. TIB-152); peripheral blood cells; ALL; 2 by deletion and 9 by insertion at codon 234 in exon 7 of the PTEN gene (resulting in downstream stop codons); Sakai, A. et al. (1998), supra.
(§3) The cells were grown in 96-well tissue culture plates in a volume of 200 μl to a concentration of 1×10^6 cells/ml. Then, the cells were incubated for 20 h with a final concentration of 5 μg/ml, 10 μg/ml, and 20 μg/ml 1-O-octadecyl-2-O-methyl-glycero-3-phosphocholine (ET-18-OCH3), respectively. Cell death was assessed by staining the cells with 7-amino-actinomycin D (Calbiochem, Darmstadt, Germany; final concentration 200 μg/ml) and analyzed via flow cytometry using a FACS-Scan flow cytometer (BD Biosciences, San Jose, Calif., USA) as described (see, e.g., Schmid, I. et al. (1994) J. Immunol. Meth. 170, 145-157; Ayuk, F. A. et al. (2005) Exp. Hematol. 33, 1531-1536).
(§4) The cells were again grown in 96-well tissue culture plates in a volume of 200 μl to a concentration of 1×10^6 cells/ml. Then, the cells were incubated for 20 h with the respective drugs. […] The cytotoxic effect of ET-18-OCH3 in combination with bortezomib was determined in Jurkat, HL60 cells, and RPMI8226 cell, whereas the cytotoxic effect of ET-18-OCH3 in combination with cytarabine, fludarabine and etoposide, respectively, in Jurkat and HL60 cells. Cell death was assessed as described in example 1.
In general terms: Flow cytometry measures light scatter and fluorescence of single cells or particles in a stream.

The test system of another data set is HL60 cells. Description: Cytotoxicity (cell death) by 7-amino-actinomycin D staining and flow cytometry, HL60 cells. As to the method: as §1, §2, §3, §4
In a further data set the test system is Jurkat cells. Description: cells. The conditions noted are these: Homo sapiens, 20 h. As to the method: Cell culture was performed as described in FIG. 1. ET-18-OCH3 was added in a final concentration of 2.5 or 5.0 μg/ml (“E2.5” and “E5”, respectively) without or in combination with 5 or 10 ng/ml bortezomib (“Vel5” and “Vel10”, respectively), and the cells were incubated for 20 h. Cell death was assessed as described in FIG. 1. The results are expressed as mean±SEM of three independent experiments.
as §2, §3, §4

The next data set deals with OPM-2 cells. Description: Cytotoxicity (cell death) by 7-amino-actinomycin D staining and flow cytometry, OPM-2 cells. It is filed as cell-based. The text has this:
(§5) The following human cell lines were used: • 1.

A further data set has as its system KMS-12-BM. Description: Cytotoxicity (cell death) by 7-amino-actinomycin D staining and flow cytometry, KMS-12-BM cells. It is filed as cell-based, human. The conditions noted are these: 20 h, 5, 10 and 20 μg/ml ET-18-OCH3, FIG. 1.
From the text: as §5

A further data set has as its system NCI-H929. Kind of data set: Cytotoxicity (cell death) by 7-amino-actinomycin D staining and flow cytometry, NCI-H929 cells. Type of data set: cell-based.
From the text: as §5

In another data set the test system is K562. Kind of data set: Cytotoxicity (cell death) by 7-amino-actinomycin D staining and flow cytometry, K562 cells. It is filed as cell-based, human. The conditions noted are these: K562, 20 h, 5, 10 and 20 μg/ml ET-18-OCH3, FIG. 1.
From the text: as §5

Another data set has as its system U266 cells. Kind of data set: Cytotoxicity (cell death) by 7-amino-actinomycin D staining and flow cytometry, U266 cells. Type of data set: cell-based, human. The conditions noted are these: U266, 20 h, 5, 10 and 20 μg/ml ET-18-OCH3, FIG. 1.
From the text: as §5

“Also recorded” adds a separate entry of the source.

The text below walks through data of patent US20100136029A1, “Use of Tri-Substituted Glycerol Compounds for the Treatment of Hematological Malignancies” (UNIVERSITATSKLINIKUM HAMBURG-EPPENDORF, priority 2006, published 2010).

Consider `CC(C)C[C@H](NC(=O)[C@H](Cc1ccccc1)NC(=O)c1cnccn1)B(O)O` [Bortezomib, bortezomib], for which the cytotoxicity at 0.005 µg/mL was found to be 7.3 ± 4.5% in the data set with RPMI8226 (Homo sapiens, RPMI-8226, 20 h); 2.7 ± 1.9% in the data set with HL60 cells (Homo sapiens, HL-60, 20 h); 0.4 ± 0.5% in the data set on Jurkat cells. Besides, the cytotoxicity at 0.01 µg/mL was determined as 25.1 ± 4% in the data set on RPMI8226 (Homo sapiens, RPMI-8226, 20 h); 10.9 ± 3.7% with HL60 cells (Homo sapiens, HL-60, 20 h); 3.6 ± 1.4% in the data set with Jurkat cells.
Take `Nc1ccn([C@@H]2O[C@H](CO)[C@@H](O)[C@@H]2O)c(=O)n1` [Cytarabine, cytarabine]: in the data set with HL60 cells (Homo sapiens, HL-60, 20 h), the cytotoxicity at 10 µM was 24 ± 2.8% and the cytotoxicity at 40 µM came out at 26.9 ± 5%. For the same molecule, in the data set on Jurkat cells, the cytotoxicity at 10 µM was found to be 11.1 ± 0.5% and the cytotoxicity at 40 µM was determined as 12.4 ± 1.2%.
In the case of `CCCCCCCCCCCCCCCCCCOCC(COP(=O)([O-])OCC[N+](C)(C)C)OC` (stereo not shown) [ET-18-OCH3, 1-O-octadecyl-2-O-methyl-glycero-3-phosphocholine], the cytotoxicity at 2.5 µg/mL in the data set on RPMI8226 (Homo sapiens, RPMI-8226, 20 h) turned out to be 11.2 ± 8.1%; in the data set on HL60 cells (Homo sapiens, HL-60, 20 h) it was 11.3 ± 7.3%; with Jurkat cells, 2.1 ± 1%. In addition, the cytotoxicity at 5 µg/mL with RPMI8226 (Homo sapiens, RPMI-8226, 20 h) turned out to be 34.7 ± 13.2%; in the data set on HL60 cells (Homo sapiens, HL-60, 20 h), 35 ± 15.9%; in the data set with Jurkat cells, 13.1 ± 5.3%. Also, the “cell death in words” value in the data set with RPMI8226 (RPMI8226, 20 h, 20 μg/ml ET-18-OCH3, FIG. 1) is “almost complete cell death”; in the data set on HL60 cells (HL60, 20 h, 20 μg/ml ET-18-OCH3, FIG. 1), “almost complete cell death”; in the data set with NCI-H929 (NCI-H929, 20 h, 20 μg/ml ET-18-OCH3, FIG. 1), “almost complete cell death”. Besides, the “cytotoxic effect, dose dependence” value is “dose-dependent effect” in the data set on RPMI8226 (RPMI8226, 20 h, 5, 10 and 20 μg/ml ET-18-OCH3, FIG. 1); “dose-dependent effect” in the data set on HL60 cells; “dose-dependent effect” in the data set on OPM-2 cells (OPM-2, 20 h, 5, 10 and 20 μg/ml ET-18-OCH3, FIG. 1); “dose-dependent effect” in the data set on NCI-H929 (NCI-H929, 20 h, 5, 10 and 20 μg/ml ET-18-OCH3, FIG. 1). Moreover, the cells died entry in the data set on OPM-2 cells (OPM-2, 20 h, 20 μg/ml ET-18-OCH3, FIG. 1) is on record as “about 75%”. For the same molecule, the results for the “cytotoxic effect (cell death) in words” value with KMS-12-BM, in the data set with K562 and in the data set with U266 cells were “significantly reduced or even almost abolished; also recorded: dose-dependent effect”, “dose-dependent effect; also recorded: significantly reduced or even almost abolished” and “do not respond to ET-18-OCH3 at all; also recorded: significantly reduced or even almost abolished”, respectively.
Regarding `COc1cc([C@@H]2c3cc4c(cc3[C@@H](O[C@@H]3O[C@@H]5CO[C@@H](C)O[C@H]5[C@H](O)[C@H]3O)[C@H]3COC(=O)[C@H]23)OCO4)cc(OC)c1O` [Etoposide, etoposide], in the data set on HL60 cells (Homo sapiens, HL-60, 20 h), the cytotoxicity at 1 µM came out at 4.1 ± 0.7%, the cytotoxicity at 2.5 µM was 10.7 ± 5.4% and the cytotoxicity at 5 µM is 23.3 ± 8.2%. Further, in the data set with Jurkat cells, the cytotoxicity at 1 µM was 5.9 ± 1.1%, the cytotoxicity at 2.5 µM was determined as 10 ± 0.8% and the cytotoxicity at 5 µM is 16.8 ± 8.4%.
As to `Nc1nc(F)nc2c1ncn2[C@@H]1O[C@H](CO)[C@@H](O)[C@@H]1O` [Fludarabine, fludarabine], in the data set with HL60 cells (Homo sapiens, HL-60, 20 h), the cytotoxicity at 10 µM is 13.8 ± 9.4% and the cytotoxicity at 50 µM was determined as 37.2 ± 4.6%. In the data set with Jurkat cells, the cytotoxicity at 10 µM came out at 2.4 ± 0.9% and the cytotoxicity at 50 µM was determined as 6.2 ± 2.4%.
